Assay results: ChEMBL document CHEMBL5550165, “Novel quinoxaline analogs as telomeric G-quadruplex ligands exert antitumor effects related to enhanced immunomodulation” (Eur J Med Chem, 2024)
Activity calls are given as the source filed them. No cut-off for these calls is given here.

Columns and labels:
4T1 [1] = experiment: Antitumor immunity against mouse 4T1 cells implanted in BALB/c mouse assessed as increase in serum IL-6 level at 10 mg/kg,ip every other day for 14 days by ELISA; format: functional, organism-based; conditions: time 14.0 day
DNA [2] = experiment: Binding affinity to Mitochondrial DNA (unknown origin) assessed as increase in melting temperature by CD spectrophotometric analysis; format: nucleic-acid assay
4T1 [3] = experiment: Antitumor immunity against mouse 4T1 cells implanted in BALB/c mouse assessed as increase in proportion of CD8+ T cells in tumor at 10 mg/kg,ip every other day for 14 days by immunohistochemistry staining based analysis; format: functional, organism-based; conditions: time 14.0 day
Quadruplex DNA [4] = experiment: Stabilization of G-quadruplex telomeric DNA in human MDA-MB-231 cells assessed as increase in BG4-positive cell nuclei at 3 uM incubated for 24 hrs by DAPI staining based immunofluorescence microscopic analysis
MDA-MB-231 [5] = experiment: Induction of immunogenic cell death in human MDA-MB-231 cells assessed as increase in CRT expression incubated for 24 hrs by Alexa Fluor 647 flow cytometric assay; format: functional, cell-based
MDA-MB-231 [6] = experiment: Inhibition of colony formation in human MDA-MB-231 cells at 0.25 uM incubated for 8 days by crystal violet staining based analysis; format: functional, cell-based; conditions: time 8.0 day
4T1 [7] = experiment: Antitumor activity against mouse 4T1 cells implanted in BALB/c mouse assessed as upregulation of gamma-H2AX expression in tumor at 10 mg/kg,ip every other day for 14 days by immunohistochemistry; format: functional, organism-based; conditions: time 14.0 day
[8] = Toxicity in BALB/c mouse implanted with mouse 4T1 cells assessed as histopathological change in liver at 10 mg/kg,ip every other day for 14 days by hematoxylin and eosin staining analysis; format: organism-based; conditions: in vivo, 336 h, time 14 day
4T1 [9] = experiment: Antitumor activity against mouse 4T1 cells implanted in BALB/c mouse assessed as damage in tumor tissue at 10 mg/kg,ip every other day for 14 days by hematoxylin and eosin staining analysis; format: functional, organism-based; conditions: time 14.0 day
MDA-MB-231 [10] = experiment: Induction of cell cycle arrest in human MDA-MB-231 cells assessed as accumulation of cells at S phase at 2 uM incubated for 24 hrs by RNase/PI staining based flow cytometry (reference value: 6.3 %); format: functional
MDA-MB-231 [11] = experiment: Induction of DNA damage in human MDA-MB-231 cells assessed as upregulation of ATM phosphorylation at 4 uM by Western blot analysis; format: functional, cell-based; conditions: TDE = time-dependent effect
MDA-MB-231 [12] = experiment: Induction of DNA damage in human MDA-MB-231 cells assessed as upregulation of RPA32 expression at 1 to 4 uM incubated for 24 hrs by Western blot analysis; format: functional, cell-based; conditions: dose 1-4 µM
MDA-MB-231 [13] = experiment: Induction of cell cycle arrest in human MDA-MB-231 cells assessed as accumulation of cells at S phase at 4 uM incubated for 24 hrs by RNase/PI staining based flow cytometry (reference value: 6.3 %); format: functional
MCF7 = experiment: Cytotoxicity against human MCF7 cells incubated for 24 hrs by CCK-8 reagent based spectrophotometric analysis; format: functional, cell-based; conditions: MCF7, 24 h
4T1 [14] = experiment: Antitumor immunity against mouse 4T1 cells implanted in BALB/c mouse assessed as increase in serum TNF-alpha level at 10 mg/kg,ip every other day for 14 days by ELISA; format: functional, organism-based; conditions: time 14.0 day
[15] = Cytotoxicity against human MCF-10A cells incubated for 24 hrs by CCK-8 reagent based spectrophotometric analysis; format: toxicity, cell-based
MDA-MB-231 [16] = experiment: Induction of apoptosis in human MDA-MB-231 cells assessed as increase in Annexin V-positive cells at 1 to 4 uM incubated for 24 hrs by Annexin V-633/PI staining based flow cytometry; format: functional, cell-based; conditions: dose 1-4 µM
[17] = Toxicity in BALB/c mouse implanted with mouse 4T1 cells assessed as histopathological change in kidney at 10 mg/kg,ip every other day for 14 days by hematoxylin and eosin staining analysis; format: organism-based; conditions: in vivo, 336 h, time 14 day
4T1 [18] = experiment: Antitumor immunity against mouse 4T1 cells implanted in BALB/c mouse assessed as increase in proportion of CD4+ T cells in spleen at 10 mg/kg,ip every other day for 14 days by flow cytometry; format: functional, organism-based; conditions: time 14.0 day
MDA-MB-231 [19] = experiment: Induction of DNA damage in human MDA-MB-231 cells assessed as increase in gamma-H2AX level in nucleus at 3 uM incubated for 24 hrs by DAPI staining based immunofluorescence analysis; format: functional, cell-based
MDA-MB-231 [20] = experiment: Induction of apoptosis in human MDA-MB-231 cells assessed as upregulation of cleaved PARP expression at 1 to 4 uM incubated for 24 hrs by Western blot analysis; format: functional, cell-based; conditions: dose 1-4 µM
MDA-MB-231 [21] = experiment: Induction of cell cycle arrest in human MDA-MB-231 cells assessed as accumulation of cells at G0/G1 phase at 4 uM incubated for 24 hrs by RNase/PI staining based flow cytometry (reference value: 82.3 %); format: functional
MDA-MB-231 [22] = experiment: Inhibition of cell migration in human MDA-MB-231 cells incubated for 48 hrs by wound scrape assay; format: functional, cell-based
MDA-MB-231 [23] = experiment: Induction of cell cycle arrest in human MDA-MB-231 cells assessed as accumulation of cells at G2/M phase at 2 uM incubated for 24 hrs by RNase/PI staining based flow cytometry (reference value: 11.3 %); format: functional
4T1 [24] = experiment: Antitumor immunity against mouse 4T1 cells implanted in BALB/c mouse assessed as increase in proportion of CD4+ T cells in tumor at 10 mg/kg,ip every other day for 14 days by flow cytometry; format: functional, organism-based; conditions: time 14.0 day
4T1 [25] = experiment: Antitumor activity against mouse 4T1 cells implanted in BALB/c mouse assessed as reduction in tumor weight at 10 mg/kg,ip every other day for 14 days; format: functional, organism-based; conditions: time 14.0 day
Quadruplex DNA [26] = experiment: Stabilization of G-quadruplex telomeric DNA in human MDA-MB-231 cells assessed as increase in colocalization of TRF2 and S9.6 formation foci at 3 uM incubated for 24 hrs by DAPI staining based immunofluorescence microscopic analysis; format: cell-based
DNA [27] = experiment: Binding affinity to DNA (unknown origin) assessed as dissociation constant by Benesi-Hildebrand equation based analysis; format: nucleic-acid assay
MDA-MB-231 [28] = experiment: Induction of cell cycle arrest in human MDA-MB-231 cells assessed as accumulation of cells at G0/G1 phase at 2 uM incubated for 24 hrs by RNase/PI staining based flow cytometry (reference value: 82.3 %); format: functional
Quadruplex DNA [29] = experiment: Binding affinity to KRAS G-quadruplex telomeric DNA (unknown origin) assessed as […] by measuring melting temperature by FRET assay; format: nucleic-acid assay
MDA-MB-231 [30] = experiment: Induction of immunogenic cell death in human MDA-MB-231 cells assessed as increase in ATP release at 1 to 4 uM incubated for 24 hrs by ELISA; format: functional, cell-based; conditions: dose 1-4 µM
MDA-MB-231 [31] = experiment: Induction of cell cycle arrest in human MDA-MB-231 cells assessed as accumulation of cells at G0/G1 phase at 1 uM incubated for 24 hrs by RNase/PI staining based flow cytometry (reference value: 82.3 %); format: functional
BMDC [32] = experiment: Induction of immunogenic cell death in BALB/c mouse BMDC cells co-cultured with mouse 4T1 cells assessed as increase in CD11c+ CD80+ CD86 cells maturation at 5 uM incubated for 24 hrs by flow cytometry (reference value: 69.4 %); format: functional
BMDC [33] = experiment: Induction of immunogenic cell death in BALB/c mouse BMDC cells co-cultured with mouse 4T1 cells assessed as increase in CD11c+ CD80+ CD86 cells maturation at 2.5 uM incubated for 24 hrs by flow cytometry (reference value: 69.4 %); format: functional

## CN(C)CCN(C)c1ccc(-c2nc3ccc(C(F)(F)F)cc3nc2-c2ccc(N(C)CCN(C)C)cc2)cc1
4T1 [1]
  Activity: Active
DNA [2]
  Activity: Active
4T1 [3]
  Activity: Active
Quadruplex DNA [4]
  Activity: Active
MDA-MB-231 [5]
  Activity: Dose-Dependent Effect
MDA-MB-231 [6]
  inhibition: Active
4T1 [7]
  Activity: Active
[8]
  Activity: Non-Toxic
4T1 [9]
  Activity: Active
MDA-MB-231 [10]
  Activity: 6.9%
MDA-MB-231 [11]
  Activity: Tde
MDA-MB-231 [12]
  Activity: Active
MDA-MB-231 [13]
  Activity: 8.6%
MCF7
  IC50: 3.6 µM
4T1 [14]
  Activity: Active
[15]
  IC50 at 24 h: 5.8 µM
MDA-MB-231 [16]
  Activity: Active
[17]
  Activity: Non-Toxic
4T1 [18]
  Activity: Active
MDA-MB-231 [19]
  Activity: Active
MDA-MB-231 [20]
  Activity: Active
MDA-MB-231 [21]
  Activity: 70.3%
MDA-MB-231 [22]
  inhibition: Dose-Dependent Effect
MDA-MB-231 [23]
  Activity: 11.5%
4T1 [24]
  Activity: Active
4T1 [25]
  Activity: Active
Quadruplex DNA [26]
  Activity: Active
DNA [27]
  Kd: 1.4 µM
MDA-MB-231 [28]
  Activity: 81.6%
Quadruplex DNA [29]
  Activity: Active
MDA-MB-231 [30]
  Activity: Active
MDA-MB-231 [31]
  Activity: 82.1%
BMDC [32]
  Activity: 77.9%
BMDC [33]
  Activity: 70.1%
